Measured values published in paper PMC8825254, “Rational design of Striga hermonthica-specific seed germination inhibitors” (Plant Physiology, 2021).
Where two headings read alike, the source gives them in different places.

Experiments:
[1] = biological target: T1, ShHTL7 (Striga hermonthica, UniProt A0A0M3PNA2); design: method as in Holbrook-Smith et al., 2016; Yoneyama, 2016; settings: previously reported, ref Holbrook-Smith et al., 2016, Yoneyama, read-out: IC50, competitive inhibition of ShHTL7-mediated YLG hydrolysis; cited from earlier work
T1 sequence (A0A0M3PNA2 1-271): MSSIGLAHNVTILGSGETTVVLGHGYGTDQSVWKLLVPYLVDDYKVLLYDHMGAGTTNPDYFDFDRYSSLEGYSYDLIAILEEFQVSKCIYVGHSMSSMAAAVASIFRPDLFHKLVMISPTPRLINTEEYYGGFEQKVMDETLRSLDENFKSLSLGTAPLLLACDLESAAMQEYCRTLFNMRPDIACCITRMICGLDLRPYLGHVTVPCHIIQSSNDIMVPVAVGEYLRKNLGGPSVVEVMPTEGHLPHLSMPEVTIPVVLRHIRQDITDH

[2] = biological target: T1, ShHTL7; assay: DSF thermal stability of ShHTL7; type: binding; settings: for Effect on SYPRO orange fluorescence peak of ShHTL7: 0 to 100 µM, result in words
Description: About 10 µM of ShHTL7 purified protein was incubated with various concentrations of KK023-N1, Triton X-100, or KK094 (ranging from 0 to 100 µM) for 30 min. Then SYPRO Orange (reporter dye) was added to 1× final concentration. The reactions were carried out in 25 µL 1× PBs buffer. The assay was performed on CFX96 Real-Time System (BIO-RAD, Hercules, CA, USA) thermal cycler on 96-well quantitative polymerase chain reaction (qPCR) white plate, and the plate was sealed with adhesive qPCR plate seal to prevent samples evaporation ([Bai et al., 2019]). First, samples were heated to 25°C for 1 min followed by linear increase in the temperature ramp from 25°C to 99°C at a rate of 0.5°C/15 s. The change in the protein folding was monitored by the changes in the fluorescence of the reporter dye, and the data were analyzed by the machine software that plots the inflection point of fluorescence against temperature. Data were exported into Excel, and replicates were averaged to generate the graph.

[3] = biological target: T1, ShHTL7; assay: YLG hydrolysis competition assay with ShHTL7; type: biochemical
Description: About 0.33 µM of ShHTL7 protein was used to conduct in vitro hydrolysis of YLG (1 µM) as a substrate in a total volume of 100 µL of phosphate-buffered saline (1× PBS) containing 0.1% DMSO in 96-well black plate (Greiner Kremsmünster, Austria; [Tsuchiya et al., 2015]). The hydrolysis of YLG over time and changes in the fluorescence intensity was measured by SpectraMax i3 (Molecular Devices, San Jose, CA, USA) using an excitation wavelength of 480 nm and detection wavelength of 520 nm and recorded at 10 min intervals for 2 h. YLG in 1× PBS without protein was used as a control. […] Measurement of the fluorescence was conducted in SpectraMax i3 (Molecular Devices) using the above-mentioned method. The relative fluorescence unit was calculated by subtracting the auto-fluorescence of YLG in the buffer from the fluorescence values of YLG in the presence of a protein. The inhibitory curve and IC50 were determined using https://www.aatbio.com/tools/ic50-calculator website.

[4] = biological target: T2, OsD14 (Oryza sativa subsp. japonica, UniProt Q10QA5); assay: YLG hydrolysis competition assay with OsD14; type: biochemical, rice (Oryza sativa)
T2 construct: made in house; host or cells: Escherichia coli BL21 (DE3)
T2 sequence (Q10QA5 1-318): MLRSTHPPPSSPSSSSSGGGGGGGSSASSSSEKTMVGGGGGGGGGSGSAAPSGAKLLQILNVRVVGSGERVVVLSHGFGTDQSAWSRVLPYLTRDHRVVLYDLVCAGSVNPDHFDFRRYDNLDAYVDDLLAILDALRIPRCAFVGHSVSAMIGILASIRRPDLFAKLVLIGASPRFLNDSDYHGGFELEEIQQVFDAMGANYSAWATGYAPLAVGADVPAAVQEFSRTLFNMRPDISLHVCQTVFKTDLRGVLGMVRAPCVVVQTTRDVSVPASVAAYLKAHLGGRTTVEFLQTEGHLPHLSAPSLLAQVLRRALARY

[5] = test system: Rice seeds (cv Nipponbare); assay: Rice germination and seedling growth in response to inhibitors; type: in vivo, rice (Oryza sativa); settings: result in words
Description: Rice seeds (cv Nipponbare) were surface sterilized in 2.5% NaClO and 0.05% of Tween-20 for 10 min, and rinsed 6 times with sterilized MilliQ water. Seeds were imbibed in sterilized water at 30°C for 24 h in the dark. Next day, ∼3 mL of each inhibitor at different concentrations (3, 6, 12, 25, 50, and 100 μM) was added along with 0.5 Murashige and Skoog (MS) medium into 24-well plate, and one imbibed rice seed was placed in each well. The experiment was performed in six replications (one plant/well, n = 6) for each concentration. Nontreated rice seeds in 0.5-MS solution were included as a control. Seeds were allowed to germinate at 30°C in the dark for 48 h for monitoring seeds germination, and seeds were moved to a growth chamber with white fluorescent light (130–180 μM m^−2 s^−1) and12 h:12 h (Light/Dark (L/D)) period at 28°C. After 1 week, length of rice seedlings was measured and recorded, and pictures of seedlings were taken.

[6] = biological target: ShHTL5 (Striga hermonthica, UniProt A0A0M5I297); assay: YLG hydrolysis competition assay with ShHTL5; type: biochemical; settings: result in words
ShHTL5, sequence (A0A0M5I297 entry or part of it): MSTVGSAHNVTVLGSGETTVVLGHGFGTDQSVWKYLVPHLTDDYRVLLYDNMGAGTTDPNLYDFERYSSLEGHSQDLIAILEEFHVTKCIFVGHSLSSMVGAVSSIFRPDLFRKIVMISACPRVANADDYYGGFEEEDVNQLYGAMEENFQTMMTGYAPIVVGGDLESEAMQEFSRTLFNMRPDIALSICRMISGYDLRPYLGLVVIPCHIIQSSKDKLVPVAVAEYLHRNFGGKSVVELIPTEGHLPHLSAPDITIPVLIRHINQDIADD

[7] = test system: Striga hermonthica seeds; assay: Striga seed germination bioassay (seeds from Sudan); type: in vivo; settings: for Reduction in Striga seed germination compared to the GR24 treatment: 20-40 µM inhibitor
Description: Striga seeds were surface sterilized by 20% Sodium hypochlorite (NaClO) for 10 min followed by successive 6 times washing with sterilized MilliQ water. Seeds were kept to dry under the laminar flow cabinet, and ∼50–100 sterilized Striga seeds were spread uniformly on a glass fiber filter paper disc (9 mm). For preconditioning, around 12 discs were put in a petri plate on a filter paper moistened with 3 mL sterilized MilliQ water. Plates were then sealed with parafilm and kept in an incubator for 10 d at 30°C (in dark). After preconditioning, plates were removed from the incubator and dried, and discs were pre-treated with different concentrations (0, 5, 10, 20, 40, 80, 160, 320, and 640 μM) of KK023-N1, KK023-N2, Triton X-100, or KK094 for 24 h. Next day, a combination of the inhibitors (same concentrations) along with GR24 (0.5 nM or 1 nM) was applied, and discs were incubated at 30°C for 24 h. For inhibitory effect of KK023-N1 and -N2 on Striga seeds obtained from Kenya, seeds were treated with (0, 3, 6, 12, 25, 50,100, 200, 400, and 800 μM). After image scanning, germinated and nongerminated seeds were counted and germination rate (%) was calculated by using SeedQuant software ([Braguy et al., 2021)].

[8] = test system: Rice WT (cv Nipponbare) seedlings; assay: Rice micro tillering assay, WT, hydroponics; type: in vivo, rice (Oryza sativa); settings: 10, 50 and 100 µM, 2 weeks, result in words
Description: (§1) Rice seeds of WT (cv Nipponbare) or SL-deficient mutant (d17), were surface sterilized with 2.5% NaClO and 0.05% of Tween-20 for 10 min, and rinsed 6 times with sterilized MilliQ water. About 30 seeds were placed on sterilized Magenta GA-7 plant culture box containing 0.5% MS medium with 0.4% agar and incubated at 30°C in dark. After 2 d, boxes were moved to a growth chamber and allowed to grow for another 5 d under fluorescent white light (130–180 μM m^−2 s^−1). Equally grown seedlings were transplanted in 50-mL black tubes filled with Hoagland nutrient solution (1 seedling/tube). Seedlings were treated with 10, 50, and 100 µM of each compound (KK023-N1, Triton X-100, and KK094). The compounds were applied twice a week for 2 weeks to test their effects on the growth of WT plants. SL-deficient seedlings (d17) were treated as WT but with the addition of 1 µM GR24. Number of tillers per plant, plant height, and dry biomass were measured at final harvest.

[9] = test system: Rice d17 seedlings; assay: Rice micro tillering assay, SL-deficient mutant d17 with GR24; type: in vivo, rice (Oryza sativa); settings: compound with 1.0 µM GR24; result in words
Description: as §1

[10] = test system: Striga hermonthica; assay: Striga emergence study in infested rice pots under greenhouse conditions; type: in vivo, Striga hermonthica on rice cv IAC165; settings: for Change in Striga emergence compared to mock: Figure 10B; for Rice plant height, change: Striga-infested pots, Figure 10C
Description: Approximately 6,000 Striga seeds (20 mg) were weighed, mixed with sand/soil mixture (1:2 ratio), and put into a 3-L perforated plastic pot containing 0.5-L clean sand/soil mixture in the bottom. The pots were kept under greenhouse-controlled conditions at 30°C and kept moist with water for Striga preconditioning for 10 d. Formulated KK023-N1 and Triton X-100 were applied (at 100 mL per pot) at 10 and 100 µM concentration. Then three rice seedlings (cv IAC165, 10 d old) were planted in each pot after 24 h of inhibitor application. All the treatments were applied continuously twice per week for 4 weeks. Water with same amount of solvent (Cyclohexanone+Atlas-G) was used as a control. Pots were irrigated with 200 mL of Hoagland’s nutrient solution with low phosphate (4 µM) when needed. The rice plants were allowed to grow under greenhouse conditions for 10 weeks and the emerged Striga plants were counted from each pot. The height of rice plants was also measured to see impact of Striga infestation on host growth.

[11] = 0.33 µM ShHTL7, 1 µM YLG, read-out: IC50, inhibition of ShHTL7-mediated YLG hydrolysis

For `CCOC(=O)C1(Cc2cccc(C(F)(F)F)c2)CCN(Cc2ccc(C#CCCO)cc2)CC1` [Soporidine], the IC50 [1] is listed as 12.5 µM.
With `CC1=C[C@H](O/C=C2/C(=O)O[C@@H]3c4ccccc4C[C@H]23)OC1=O` [GR24] the “Decrease of ShHTL7 melting temperature” value [2] was 7 °C, the “Melting temperature of ShHTL7” value ([2]; high concentrations of compound, 50°C without) was 43 °C and the IC50 [3, 11] was 0.27 µM. It also gave an IC50 ([4]; 0.33 µM OsD14, 1 µM YLG, read-out: IC50, inhibition of OsD14-mediated YLG hydrolysis) of 2.59 µM.
With `COc1ccc(CCCc2cccc3c2CCN3C(=O)n2nccn2)cc1` [KK023-N2] the “Effect on rice seedling plant height” value ([5]; all treatments (3-100 µM), 1 week) was “no effect on plant height was observed”, the “Effect on rice seed germination” value ([5]; up to 100 µM) was “did not detect any effect on seed germination” and the “Phenotype of treated rice seedlings versus control” value ([5]; up to 100 µM) was “did not show any significant phenotypic difference”. The “Effect on YLG hydrolysis by ShHTL5” value [6] was “did not influence the YLG hydrolysis”, the “Reduction in Striga seed germination compared to the GR24 treatment” value ([7]; GR24 0.5 or 1.0 nM) was “around 42%” and the IC50 [3] was 2.15 µM. The IC50 ([4]; Figure 3D-F, mean ± SD, n = 3, no unit printed with values (x-axis µM), read-out: IC50, OsD14-mediated YLG hydrolysis (Figure 3)) was over 50 µM.
With `O=C(N1CCc2ccccc21)n1ccnn1` [KK094] the “Effect on dry biomass of WT rice” value [8] was “reduction in plant height and dry biomass”, the “Effect on plant height of WT rice” value [8] was “reduction in plant height” and the “Effect on tillering of WT rice” value [8] was “significant increase in rice tillering”. The “Effect on SYPRO orange fluorescence peak of ShHTL7” value [2] was “did not change the fluorescence peak”, the “Reduction in Striga seed germination” value ([7]; 20 µM inhibitor, GR24 0.5 or 1.0 nM) was 50% and the “Inhibition of Striga seed germination” value ([7]; 80 µM, result in words) was “complete inhibition”. For the same compound, the inhibition at 100 µM ([7]; Striga hermonthica, 100 µM) was 100%, the IC50 [3] was over 25 µM and the “Effect on GR24 action on tillering of d17 rice” value [9] was “blocked D14, resulting in increased tillering phenotype”.
In the case of Triton X-100 [reference compound], the “Effect on SYPRO orange fluorescence peak of ShHTL7” value [2] is reported as “reduction in the peak fluorescence”, the “Reduction in Striga seed germination compared to the GR24 treatment” value ([7]; GR24 0.5 or 1.0 nM) is reported as 31% and the IC50 [3, 11] is reported as 0.47 µM. For the same compound, the “Effect on GR24 action on tillering of d17 rice” value [9] was “did not block the GR24 effect on rice tillers”, the “Change in Striga emergence compared to mock” value ([10]; 10 µM) was -13% and the “Rice plant height, change” value ([10]; 10 µM) was -23%. For the same compound, the “Change in Striga emergence compared to mock” value ([10]; 100 µM) was -25% and the “Rice plant height, change” value ([10]; 100 µM) was -4%.
